Consider 21 compounds from patent US9777003B2, “Tricyclic heterocycles as bet protein inhibitors” (Incyte Corporation, priority 2013, dated 2017).

Structures can show the parent of a compound that is named as a salt. A value given as a limit tells only on which side of the number the result lay.

In one assay the target is BRD4-BD1 (Homo sapiens (Human), UniProt O60885). Description: BRD4 AlphaScreen assay, BRD4-BD1. It counts as binding. The settings on record: biotin-labeled tetra-acetylated histone H4 peptide, 75 min, room temperature, read-out: BRD4 BD-1 enzyme IC50. The protocol:
(§1) BRD4-BD1 and BRD4-BD2 assays were conducted in white 384-well polystyrene plate in a final volume of 20 μL for BD1 and 40 μL for BD2. Inhibitors were first serially diluted in DMSO and added to the plate wells before the addition of other reaction components. The final concentration of DMSO in the assay was 1.25% (BD1) and 0.83% (BD2). The assays were carried out at room temperature for 75 min. in the assay buffer (50 mM HEPES, pH 7.4, 100 mM NaCl, 0.05% CHAPS, 0.01% BSA), containing 50 nM Biotin-labeled tetra-acetylated histone H4 peptide (H4Ac4), 3.8 nM (BRD4-BD1, BPS Bioscience #31040) or 20 nM (BRD4-BD2, BPS Bioscience #31041). The reaction followed by the addition of 20 μL of assay buffer supplemented with Streptavidin donor beads (PerkinElmer 6760002) and GSH Acceptor beads (PerkinElmer-AL109C) at 4 μg/mL under reduced light. After plate sealing, the plate was incubated in the dark at room temperature for 75 min. before reading on a PHERAstar FS plate reader (BMG Labtech). IC50 determination was performed by fitting the curve of percent control activity versus the log of the inhibitor concentration using the GraphPad Prism 5.0 software.

Another assay addresses BRD4-BD2 (Homo sapiens (Human), UniProt O60885). The experiment in a line: BRD4 AlphaScreen assay, BRD4-BD2. Type of assay: binding. The settings on record: biotin-labeled tetra-acetylated histone H4 peptide, 75 min, room temperature, read-out: BRD4 BD-2 enzyme IC50. The protocol:
as §1

As to `CC(=O)Nc1cccc(Cn2c(C)cc3c2ccc2nnc(C)n23)c1` [Example 25, N-{3-[(1,7-dimethyl-6H-pyrrolo[2,3-e][1,2,4]triazolo[4,3-a]pyridin-6-yl)methyl]phenyl}acetamide Trifluoroacetate Salt], the IC50 on BRD4-BD1 was 100 to 1000 nM; on BRD4-BD2 it was not above 100 nM.
For `Cc1cc2c(ccc3nnc(C)n32)n1Cc1ccc2ccccc2n1` [Example 21, 1,7-dimethyl-6-(quinolin-2-ylmethyl)-6H-pyrrolo[2,3-e][1,2,4]triazolo[4,3-a]pyridine], the IC50 is 100 to 1000 nM at BRD4-BD1 and not above 100 nM on BRD4-BD2.
As for `Cc1cc2c(ccc3nnc(C)n32)n1Cc1cccc(CN(C)CCO)c1` [Example 37, 2-[{3-[(1,7-dimethyl-6H-pyrrolo[2,3-e][1,2,4]triazolo[4,3-a]pyridin-6-yl)methyl]benzyl}(methyl)amino]ethanol], the results for the IC50 at BRD4-BD1 and on BRD4-BD2 were 100 to 1000 nM and not above 100 nM, respectively.
In the same order, the values of `Cc1cc2c(cc(Nc3ccn(C)n3)c3nnc(C)n32)n1Cc1ccccc1` [Example 202, 6-Benzyl-1,7-dimethyl-N-(1-methyl-1H-pyrazol-3-yl)-6H-pyrrolo[2,3-e][1,2,4]triazolo[4,3-a]pyridin-4-amine tris(trifluoroacetate) Salt] are not above 100 nM and not above 100 nM.
In the same order, the values of `CCn1ccc(-c2cc3c(ccc4nnc(C)n43)n2Cc2cc(Cl)cc(CN3CCCC3)c2)n1` [Example 189, 6-(3-Chloro-5-(pyrrolidin-1-ylmethyl)benzyl)-7-(1-ethyl-1H-pyrazol-3-yl)-1-methyl-6H-pyrrolo[2,3-e][1,2,4]triazolo[4,3-a]pyridine tris(trifluoroacetate) Salt] are not above 100 nM and not above 100 nM.
As to `Cc1cc2c(ccc3nnc(C)n32)n1Cc1cccc(CN2CCCCC2)c1` [Example 46, 1,7-dimethyl-6-[3-(piperidin-1-ylmethyl)benzyl]-6H-pyrrolo[2,3-e][1,2,4]triazolo[4,3-a]pyridine], the IC50 at BRD4-BD1 and at BRD4-BD2 was not above 100 nM each time.
For the compound `Cc1nnc2ccc3c(cc(-c4ccn(CCC(=O)N(C)C)n4)n3Cc3cccc(Cl)c3)n12` [Example 103, 3-{3-[6-(3-chlorobenzyl)-1-methyl-6H-pyrrolo[2,3-e][1,2,4]triazolo[4,3-a]pyridin-7-yl]-1H-pyrazol-1-yl}-N,N-dimethylpropanamide], the IC50 on BRD4-BD1 and at BRD4-BD2 was not above 100 nM in each case.
On to `Cc1cc2c(ccc3nnc(C)n32)n1Cc1ccc(CN2CCCC2)cc1` [Example 51, 1,7-dimethyl-6-[4-(pyrrolidin-1-ylmethyl)benzyl]-6H-pyrrolo[2,3-e][1,2,4]triazolo[4,3-a]pyridine], for which the IC50 at BRD4-BD1 and at BRD4-BD2 was 100 to 1000 nM in each case.
`Cc1nnc2ccc3c(cc(Cn4ccnc4)n3Cc3ccccc3)n12` [Example 57, 6-benzyl-7-(1H-imidazol-1-ylmethyl)-1-methyl-6H-pyrrolo[2,3-e][1,2,4]triazolo[4,3-a]pyridine]: the IC50 fell in the range of 1000 to 10000 nM at BRD4-BD1 and 100 to 1000 nM at BRD4-BD2.
As for `CCN1CC(CC#N)(n2ccc(-c3cc4c(ccc5nnc(C)n54)n3Cc3cccc(Cl)c3)n2)C1` [Example 158, (3-{3-[6-(3-Chlorobenzyl)-1-methyl-6H-pyrrolo[2,3-e][1,2,4]triazolo[4,3-a]pyridin-7-yl]-1H-pyrazol-1-yl}-1-ethylazetidin-3-yl)acetonitrile bis(trifluoroacetate) Salt], the IC50 at BRD4-BD1 and at BRD4-BD2 was not above 100 nM throughout.
In the case of `Cc1nnc2ccc3c(cc(C(=O)N[C@H](C)C(F)(F)F)n3Cc3ccccc3)n12` [Example 86, 6-benzyl-1-methyl-N-[(1R)-2,2,2-trifluoro-1-methylethyl]-6H-pyrrolo[2,3-e][1,2,4]triazolo[4,3-a]pyridine-7-carboxamide], the IC50 at BRD4-BD1 and on BRD4-BD2 was 100 to 1000 nM in each case.
For `Cc1cc2c(cc(NC(N)=O)c3nnc(C)n32)n1Cc1cccc(Cl)c1` [Example 231, 1-(6-(3-Chlorobenzyl)-1,7-dimethyl-6H-pyrrolo[2,3-e][1,2,4]triazolo[4,3-a]pyridin-4-yl)urea], the IC50 at BRD4-BD1 and on BRD4-BD2 was not above 100 nM each time.
For `Cc1cc2c(cc(N[C@H]3CC[C@@H](C#N)CC3)c3nnc(C)n32)n1Cc1ccccc1` (single isomer, unassigned) [Example 215 b, 4-[(6-benzyl-1,7-dimethyl-6H-pyrrolo[2,3-e][1,2,4]triazolo[4,3-a]pyridin-4-yl)amino]cyclohexanecarbonitrile Trifluoroacetate Salt], the IC50 on BRD4-BD1 and at BRD4-BD2 was not above 100 nM in each case.
On to `CNC(=O)Nc1cc2c(cc(C)n2Cc2ccccc2)n2c(C)nnc12` [Example 229, 1-(6-Benzyl-1,7-dimethyl-6H-pyrrolo[2,3-e][1,2,4]triazolo[4,3-a]pyridin-4-yl)-3-methylurea], for which the IC50 on BRD4-BD1 and on BRD4-BD2 was not above 100 nM throughout.
Turning to `Cc1nnc2ccc3c(cc(-c4ccn(C5(CC#N)CN(S(C)(=O)=O)C5)n4)n3Cc3ccccc3)n12` [Example 92, [3-[3-(6-benzyl-1-methyl-6H-pyrrolo[2,3-e][1,2,4]triazolo[4,3-a]pyridin-7-yl)-1H-pyrazol-1-yl]-1-(methylsulfonyl)azetidin-3-yl]acetonitrile], the IC50 at BRD4-BD1 and at BRD4-BD2 was not above 100 nM throughout.
In the case of `Cc1cc2c(cc(NC3CCN(C)CC3)c3nnc(C)n32)n1Cc1cccnc1` [Example 154, 1,7-dimethyl-N-(1-methylpiperidin-4-yl)-6-(pyridin-3-ylmethyl)-6H-pyrrolo[2,3-e][1,2,4]triazolo[4,3-a]pyridin-4-amine], the IC50 on BRD4-BD1 and on BRD4-BD2 was not above 100 nM in each case.
For the compound `Cc1cc2c(cc(NC(N)=O)c3nnc(C)n32)n1Cc1cccc(F)c1F` [Example 237, 1-(6-(2,3-Difluorobenzyl)-1,7-dimethyl-6H-pyrrolo[2,3-e][1,2,4]triazolo[4,3-a]pyridin-4-yl)urea], the IC50 at BRD4-BD1 and at BRD4-BD2 was not above 100 nM throughout.
With `Cc1nnc2ccc3c(cc(-c4ccn(CCN(C)C)n4)n3Cc3ccccc3)n12` [Example 89, 2-[3-(6-benzyl-1-methyl-6H-pyrrolo[2,3-e][1,2,4]triazolo[4,3-a]pyridin-7-yl)-1H-pyrazol-1-yl]-N,N-dimethylethanamine], the IC50 on BRD4-BD1 is 100 to 1000 nM; at BRD4-BD2 it was not above 100 nM.
In the same order, the values of `Cc1cc2c(cc(N[C@@H]3CCNC3)c3nnc(C)n32)n1Cc1ccccc1` [Example 151, 6-benzyl-1,7-dimethyl-N-[(3R)-pyrrolidin-3-yl]-6H-pyrrolo[2,3-e][1,2,4]triazolo[4,3-a]pyridin-4-amine bis(trifluoroacetate) Salt] are not above 100 nM and not above 100 nM.
In the same order, the values of `Cc1cc2c(cc(NC(N)=O)c3nnc(C)n32)n1Cc1ccccc1F` [Example 238, 1-(6-(2-Fluorobenzyl)-1,7-dimethyl-6H-pyrrolo[2,3-e][1,2,4]triazolo[4,3-a]pyridin-4-yl)urea] are not above 100 nM and not above 100 nM.
Consider `Cc1cc2c(ccc3nnc(C)n32)n1Cc1cccc(CN2CCN(C)CC2)c1` [Example 47, 1,7-dimethyl-6-{3-[(4-methylpiperazin-1-yl)methyl]benzyl}-6H-pyrrolo[2,3-e][1,2,4]triazolo[4,3-a]pyridine], for which the half-inhibitory concentration (IC50) at BRD4-BD1 is 100 to 1000 nM; on BRD4-BD2 it was not above 100 nM.
